Laboratory results from ChEMBL document CHEMBL4483862, “Open-source discovery of chemical leads for next-generation chemoprotective antimalarials” (2018).

Tested on: Plasmodium berghei
Test: Luciferase/luciferin-expressing antifolate-resistant parasites were used to infect a culture of HepG2 cells that were pre-incubated with compounds. Infected hepatocytes emit light due to the luciferase reaction. Assay results are presented as the percent inhibition of light emission compared to control. […]
Type: functional
Conditions: sporozoite; for IC90: read-out: LUCIFERASE INFECTION ASSAY - IC90
[1] = read-out: LUCIFERASE INFECTION ASSAY - IC50

Row | SMILES | IC90 | further results
1 | COC(=O)c1c(NC(=O)c2ccoc2)c2cc(NCCc3ccccc3)cnc2n1Cc1ccccc1 | > 6.67 µM | IC50 (FFLUC_HILL_SLOPE 1.52, FFLUC_R_SQUARED 0.257, PBLUC_HILL_SLOPE 25.4, PBLUC_R_SQUARED 0.141, read-out: LUCIFERASE INFECTION ASSAY - IC50): > 6.67 µM
2 | CN(Cc1ccc2c(c1)OCO2)c1cnn(-c2nc3ccccc3[nH]2)c(=O)c1Cl | 3.94 µM | IC50 (HEPG2TOX_HILL_SLOPE 3.37, 11.7, HEPG2TOX_R_SQUARED 0.995, 0.503, PBLUC_HILL_SLOPE 3.37, 1.13, PBLUC_R_SQUARED 0.633, 0.779, read-out: LUCIFERASE INFECTION ASSAY - IC50): 0.948 µM
3 | FC(F)(F)c1cnc(-n2cccc2/C=N/Nc2nc3ccccc3nc2C(F)(F)F)c(Cl)c1 | > 6.81 µM | IC50 (FFLUC_HILL_SLOPE 4.66, FFLUC_R_SQUARED 0.46, HEPG2TOX_HILL_SLOPE 16.5, HEPG2TOX_R_SQUARED 0.459, PBLUC_HILL_SLOPE 3.99, PBLUC_R_SQUARED 0.83, read-out: LUCIFERASE INFECTION ASSAY - IC50): 4.16 µM
4 | N#C/C(=N\Nc1cccc(C(F)(F)F)c1)S(=O)(=O)c1ccsc1 | > 9.18 µM | IC50 (HEPG2TOX_HILL_SLOPE 2.11, HEPG2TOX_R_SQUARED 0.943, PBLUC_HILL_SLOPE 4.11, PBLUC_R_SQUARED 0.604, read-out: LUCIFERASE INFECTION ASSAY - IC50): 6.42 µM
5 | CC(C)c1ccc(NC(=O)Nc2nc(C(N)CCc3ccccc3)cs2)cc1 (centres undefined) | 7.09 µM | IC50 (HEPG2TOX_HILL_SLOPE 3.95, HEPG2TOX_R_SQUARED 0.94, PBLUC_HILL_SLOPE 4.47, PBLUC_R_SQUARED 0.626, read-out: LUCIFERASE INFECTION ASSAY - IC50): 4.34 µM
6 | Cc1cc(C(=O)C(C)OC(=O)CCc2nc(=O)c3ccccc3[nH]2)c(C)n1-c1ccc(Cl)cc1 (centres undefined) | > 10 µM | IC50 (HEPG2TOX_HILL_SLOPE 0.024, HEPG2TOX_R_SQUARED 0.0218, read-out: LUCIFERASE INFECTION ASSAY - IC50): > 10 µM
7 | Cc1nn(-c2ccccc2C(F)(F)F)c2nc(-c3ccccc3)cc(C(=O)N3CCCC(C)C3)c12 (centres undefined) | > 10 µM | IC50 (PBLUC_HILL_SLOPE 14.7, PBLUC_R_SQUARED 0.435, read-out: LUCIFERASE INFECTION ASSAY - IC50): 9.53 µM
8 | COc1cc(Cl)c(C)cc1-n1c(SC(C(C)=O)c2ccccc2)nc2ccccc2c1=O (centres undefined) | > 10 µM | IC50 (FFLUC_HILL_SLOPE 3.43, FFLUC_R_SQUARED 0.242, HEPG2TOX_HILL_SLOPE 4.83, HEPG2TOX_R_SQUARED 0.785, PBLUC_HILL_SLOPE 3.87, PBLUC_R_SQUARED 0.683, read-out: LUCIFERASE INFECTION ASSAY - IC50): 6.65 µM
9 | CCc1nn2c(=O)cc(CSc3ccc(C)cc3)[nH]c2c1-c1ccc(F)cc1 | 2.98 µM | IC50 (FFLUC_HILL_SLOPE 2.56, FFLUC_R_SQUARED 0.75, PBLUC_HILL_SLOPE 10.5, PBLUC_R_SQUARED 0.512, read-out: LUCIFERASE INFECTION ASSAY - IC50): 2.42 µM
10 | CC(=O)OCc1ccccc1Sc1ccccc1C(=O)Nc1ccccc1 | > 8.74 µM | IC50 (FFLUC_HILL_SLOPE 9.22, FFLUC_R_SQUARED 0.715, read-out: LUCIFERASE INFECTION ASSAY - IC50): > 8.74 µM
11 | COC(=O)c1cc(-c2ccc(C)cc2)nc2onc(C(C)C)c12 | > 10 µM | IC50 [1]: > 10 µM
12 | COc1cccc(C(=O)Nc2nc3ccc(C)cn3c2C(=O)NC2CCCC2)c1 | 3.16 µM | IC50 (HEPG2TOX_HILL_SLOPE 1.86, HEPG2TOX_R_SQUARED 0.913, PBLUC_HILL_SLOPE 11.1, PBLUC_R_SQUARED 0.319, read-out: LUCIFERASE INFECTION ASSAY - IC50): 2.59 µM
13 | COc1ccc(CC2(Cc3ccc(OC)c(F)c3)C(=O)N(c3ccccc3C)C(=O)c3ccccc32)cc1F | > 10 µM | IC50 (FFLUC_HILL_SLOPE 0.212, FFLUC_R_SQUARED 0.0258, read-out: LUCIFERASE INFECTION ASSAY - IC50): > 10 µM
14 | CCc1cccc(CC)c1N=C(S)NC(C)c1ccccc1 (centres undefined) | > 10 µM | IC50 [1]: > 10 µM
15 | COc1cc(CNC2CCCC2)c(Br)cc1OC1CCCC1 | > 8.15 µM | IC50 (PBLUC_HILL_SLOPE 45, PBLUC_R_SQUARED 0.216, read-out: LUCIFERASE INFECTION ASSAY - IC50): 8.1 µM
16 | O=C(c1c[nH]c(-c2ccnc(N3CCCC3)c2)c1)c1cc(Cl)ccc1O | 1.6 µM | IC50 (HEPG2TOX_HILL_SLOPE 4.74, 0.999, HEPG2TOX_R_SQUARED 0.925, 0.982, PBLUC_HILL_SLOPE 1.70, 2.23, PBLUC_R_SQUARED 0.381, 0.812, read-out: LUCIFERASE INFECTION ASSAY - IC50): 0.598 µM
17 | O=C(NC1CC1)c1ccc(N2CCN(C(c3ccc(F)cc3)c3ccc(F)cc3)CC2)nc1 | > 10 µM | IC50 (PBLUC_HILL_SLOPE 2.42, PBLUC_R_SQUARED 0.524, read-out: LUCIFERASE INFECTION ASSAY - IC50): 4.87 µM
18 | COc1cccc(NC(=O)N2CCc3nc(Nc4ccc(C(C)C)cc4)ncc3C2)c1 | > 7.9 µM | IC50 (PBLUC_HILL_SLOPE 3.71, PBLUC_R_SQUARED 0.181, read-out: LUCIFERASE INFECTION ASSAY - IC50): 6.78 µM
19 | CN1CCN(S(=O)(=O)c2cc(C(=O)NCc3ccccc3F)cc(-c3ccccc3)c2)CC1 | > 7.06 µM | IC50 [1]: 6.09 µM

Row | SMILES | IC90 | further results
20 | C/C(=N\n1c(-c2ccc(OC(F)F)cc2)cs/c1=N\CCc1ccccc1)c1ccc2c(c1)OCO2 | > 10 µM | IC50 (PBLUC_HILL_SLOPE 2.39, PBLUC_R_SQUARED 0.524, read-out: LUCIFERASE INFECTION ASSAY - IC50): 9.18 µM
21 | O=C(Nc1ccc(OC(F)(F)F)cc1)c1ccc2c(c1)no[n+]2[O-] | 7.89 µM | IC50 (HEPG2TOX_HILL_SLOPE 13, HEPG2TOX_R_SQUARED 0.448, PBLUC_HILL_SLOPE 2.82, PBLUC_R_SQUARED 0.324, read-out: LUCIFERASE INFECTION ASSAY - IC50): 3.62 µM
22 | N#Cc1ccccc1S(=O)(=O)NC(=O)Cn1cc(-c2cccc(F)c2)nn1 | > 8.56 µM | IC50 [1]: > 8.56 µM
23 | Cn1nc(-c2ccc(/C=N/NC(=O)c3ccc(Cl)cc3)s2)cc1C(F)(F)F | 3.23 µM | IC50 (HEPG2TOX_HILL_SLOPE 12, HEPG2TOX_R_SQUARED 0.148, PBLUC_HILL_SLOPE 12.7, PBLUC_R_SQUARED 0.63, read-out: LUCIFERASE INFECTION ASSAY - IC50): 2.72 µM
24 | COc1cc(/C=C2\C(=O)c3ccccc3S(=O)(=O)N2C(C)C)ccc1O | 2.85 µM | IC50 (FFLUC_HILL_SLOPE 10, FFLUC_R_SQUARED 0.0898, HEPG2TOX_HILL_SLOPE 4.33, HEPG2TOX_R_SQUARED 0.977, PBLUC_HILL_SLOPE 2.02, PBLUC_R_SQUARED 0.77, read-out: LUCIFERASE INFECTION ASSAY - IC50): 0.957 µM
25 | CCc1nc(Sc2nnnn2-c2ccccc2)c2c3c(sc2n1)CCCC3 | > 10 µM | IC50 [1]: > 10 µM
26 | CN(CC(=O)Nc1ccc(-c2nc3ccccc3[nH]2)cc1)S(=O)(=O)c1ccc(Cl)s1 | > 10 µM | IC50 (HEPG2TOX_HILL_SLOPE 1.06, HEPG2TOX_R_SQUARED 0.764, PBLUC_HILL_SLOPE 1.55, PBLUC_R_SQUARED 0.165, read-out: LUCIFERASE INFECTION ASSAY - IC50): > 10 µM
27 | CN(C)c1cc[n+](CC(=O)Nc2ccc(OC(F)F)cc2)cc1 | > 10 µM | IC50 (HEPG2TOX_HILL_SLOPE 2.17, HEPG2TOX_R_SQUARED 0.89, read-out: LUCIFERASE INFECTION ASSAY - IC50): > 10 µM
28 | O=C1c2cccnc2C(=O)N1Cc1ccc2c(c1)OCO2 | > 11.7 µM | IC50 [1]: > 11.7 µM
29 | CCNC(=O)Cn1c(=O)/c(=C\c2ccccc2Cl)s/c1=C\C(=O)c1ccccc1C | > 10 µM | IC50 [1]: > 10 µM
30 | Cc1ccc(-c2c(C)nn3c(=O)cc(C)[nH]c23)cc1 | 12.5 µM | IC50 (HEPG2TOX_HILL_SLOPE 4.15, HEPG2TOX_R_SQUARED 0.53, PBLUC_HILL_SLOPE 4.03, PBLUC_R_SQUARED 0.493, read-out: LUCIFERASE INFECTION ASSAY - IC50): 7.24 µM
31 | OC(CSc1nnc(CNc2cccc(C(F)(F)F)c2)n1C1CCCCC1)c1ccccc1 (centres undefined) | > 10 µM | IC50 (HEPG2TOX_HILL_SLOPE 0.64, HEPG2TOX_R_SQUARED 0.795, PBLUC_HILL_SLOPE 0.508, PBLUC_R_SQUARED 0.492, read-out: LUCIFERASE INFECTION ASSAY - IC50): 1.13 µM
32 | CC1CCCC(NC(=O)CSc2nnc(O)n2Cc2ccccc2)C1C (centres undefined) | > 10 µM | IC50 [1]: > 10 µM
33 | Cn1c(N)c(C(=O)CSc2nnc(-c3ccccc3)c(-c3ccccc3)n2)c(=O)n(C)c1=O | > 10 µM | IC50 (PBLUC_HILL_SLOPE 1.94, PBLUC_R_SQUARED 0.495, read-out: LUCIFERASE INFECTION ASSAY - IC50): 3.75 µM
34 | CC(=O)Nc1cccc(/C(C)=N/n2c(-c3cccc([N+](=O)[O-])c3)cs/c2=N\c2c(C)cccc2C)c1 | 4.17 µM | IC50 (FFLUC_HILL_SLOPE 18.6, FFLUC_R_SQUARED 0.557, PBLUC_HILL_SLOPE 12.4, PBLUC_R_SQUARED 0.7, read-out: LUCIFERASE INFECTION ASSAY - IC50): 3.49 µM
35 | OCc1ccccc1-c1cn2c(-c3ccc(Cl)cc3)cnc2cn1 | 3.81 µM | IC50 (PBLUC_HILL_SLOPE 13.7, PBLUC_R_SQUARED 0.696, read-out: LUCIFERASE INFECTION ASSAY - IC50): 3.25 µM
36 | COc1ccccc1N1C(C)=CC(=C(C#N)c2nc3ccccc3s2)C=C1C | > 10 µM | IC50 (FFLUC_HILL_SLOPE 10.1, FFLUC_R_SQUARED 0.663, HEPG2TOX_HILL_SLOPE 9.46, HEPG2TOX_R_SQUARED 0.504, PBLUC_HILL_SLOPE 1.94, PBLUC_R_SQUARED 0.582, read-out: LUCIFERASE INFECTION ASSAY - IC50): 3.83 µM
37 | CS(=O)(=O)Nc1ccc(-c2csc(Nc3ccccn3)n2)cc1 | 9.68 µM | IC50 (HEPG2TOX_HILL_SLOPE 3.13, HEPG2TOX_R_SQUARED 0.99, PBLUC_HILL_SLOPE 12.3, PBLUC_R_SQUARED 0.0453, read-out: LUCIFERASE INFECTION ASSAY - IC50): 8.1 µM
